Results on 15 molecules are retold here after PubChem BioAssay (NCI).

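All cell lines were grown in 96-well plates and treated with compound for 48 hours. TGI: concentration producing complete growth inhibition.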 Peptide text beside a SMILES is read from it. * marks the point of attachment. OSu = O=C1CCC(=O)N1O*; OBn = c1ccc(CO*)cc1; Bn = c1ccc(C*)cc1

Among the test systems are SK-MEL-28 melanoma; OVCAR-3 ovarian; KM12 colon; OVCAR-8 ovarian; COLO 205 colon; MDA-N; SNB-75 CNS; MDA-MB-435; HT29 colon; MDA-MB-231 breast.
Common to all, as to experiment: growth of human tumour cells (NCI), 48 h

Consider `C/C(=N\NC(=O)N/N=C(\C)c1ccccn1)c1ccccn1`, for which the TGI in the assay with SK-MEL-28 melanoma, in the assay with OVCAR-3 ovarian, in the assay on KM12 colon, in the assay with OVCAR-8 ovarian, in the assay with COLO 205 colon and in the assay on MDA-N was greater than 100 µM each time. For the same molecule, the TGI in the assay on SNB-75 CNS, with MDA-MB-435 and with HT29 colon was greater than 100 µM in each case.

For the molecule `CC(CN(C)C)C(=O)/C=C/c1ccc(Cl)c(Cl)c1` (stereo not given), the TGI in the assay with MDA-MB-231 breast is 3.29 µM; in the assay with SK-MEL-28 melanoma, 16.5 µM; in the assay with OVCAR-3 ovarian, 3.87 µM; with KM12 colon, 3.23 µM; in the assay on OVCAR-8 ovarian, 2.85 µM; in the assay on COLO 205 colon it was 2.58 µM. Further, the results for the TGI in the assay on MDA-N, in the assay on SNB-75 CNS and in the assay with MDA-MB-435 were 6.03 µM, 51.1 µM and 3.33 µM, respectively.

In the case of `Cc1[nH]c(=O)[nH]c(=O)c1C(=O)N(CCO)Cc1ccccc1`, the TGI with MDA-MB-231 breast was greater than 100 µM; in the assay on SK-MEL-28 melanoma it was greater than 100 µM; with OVCAR-3 ovarian it was greater than 100 µM; in the assay on KM12 colon it was greater than 100 µM; with COLO 205 colon it was 45.7 µM; in the assay on MDA-N, greater than 100 µM. In addition, the TGI in the assay on MDA-MB-435 and in the assay with HT29 colon was greater than 100 µM throughout.

For `CC(C)CC(NC(=O)C(N)CCC(=O)OCc1ccccc1)C(=O)NC(COCc1ccccc1)C(=O)NC(Cc1ccccc1)C(=O)ON1C(=O)CCC1=O` (stereo not given) (H-E(OBn)LS(Bn)F-OSu; configuration not given here), the TGI was 40 µM in the assay on MDA-MB-231 breast; 68.6 µM in the assay with SK-MEL-28 melanoma; greater than 100 µM in the assay on KM12 colon; greater than 100 µM in the assay with OVCAR-8 ovarian; 47.6 µM in the assay with MDA-N; greater than 100 µM in the assay on SNB-75 CNS. The TGI with MDA-MB-435 and with HT29 colon was greater than 100 µM throughout.

`CN1N(c2ccccc2)C(=O)C2=NC=C(C#N)C(=N)C21C` (stereo not given): the TGI in the assay with MDA-MB-231 breast, in the assay with SK-MEL-28 melanoma, in the assay with OVCAR-3 ovarian, in the assay on KM12 colon, with OVCAR-8 ovarian and with COLO 205 colon was greater than 100 µM in each case. Besides, the TGI in the assay with MDA-N, with SNB-75 CNS and with MDA-MB-435 was greater than 100 µM in each case.

In the case of `O=C1/C(=C2\SCC(=O)N2c2ccccc2)SC(=S)N1c1ccccc1`, the TGI in the assay with MDA-MB-231 breast is 45.2 µM; in the assay with SK-MEL-28 melanoma it was greater than 100 µM; in the assay with OVCAR-3 ovarian, 83.2 µM; with KM12 colon, greater than 100 µM; in the assay on OVCAR-8 ovarian, greater than 100 µM; in the assay with COLO 205 colon, greater than 100 µM. Also, the TGI in the assay on MDA-N, in the assay with MDA-MB-435 and with HT29 colon was greater than 100 µM each time.

With `CC(=O)C(C(=O)C(C)(C)C)C(=O)C(C)(C)C`, the TGI with MDA-MB-231 breast, in the assay with SK-MEL-28 melanoma, in the assay on KM12 colon, in the assay with OVCAR-8 ovarian, in the assay with COLO 205 colon and in the assay on MDA-N was greater than 100 µM throughout. In addition, the TGI in the assay with SNB-75 CNS and in the assay with MDA-MB-435 was greater than 100 µM throughout.

As for `Cc1ccc(C2(c3ccc(C)c(O)c3C)CCN(C)CC2)c(C)c1O`, the TGI in the assay on MDA-MB-231 breast, in the assay with SK-MEL-28 melanoma, with OVCAR-3 ovarian, with KM12 colon, in the assay with OVCAR-8 ovarian and in the assay on MDA-N was greater than 100 µM throughout. The TGI with SNB-75 CNS, with MDA-MB-435 and with HT29 colon was greater than 100 µM in each case.

On to `CC1CN=C(N(C)C(=O)Nc2ccc(Cl)c(Cl)c2)S1` (stereo not given), for which the TGI with MDA-MB-231 breast was greater than 100 µM; in the assay on SK-MEL-28 melanoma, 37.9 µM; in the assay on OVCAR-3 ovarian, greater than 100 µM; with KM12 colon, greater than 100 µM; in the assay with OVCAR-8 ovarian, greater than 100 µM; with COLO 205 colon, greater than 100 µM. For the same molecule, the TGI in the assay on MDA-N, in the assay on SNB-75 CNS and in the assay with HT29 colon was greater than 100 µM throughout.

Take `CN(C)/C=N/S(=O)(=O)c1nn2c(C=O)c(-c3cc4ccccc4oc3=O)nc2s1`: the TGI in the assay on MDA-MB-231 breast was 32.3 µM; in the assay with SK-MEL-28 melanoma, 12.1 µM; in the assay on OVCAR-3 ovarian it was 17.3 µM; with KM12 colon, greater than 49 µM; with OVCAR-8 ovarian it was greater than 42 µM; in the assay on MDA-N it was 20.7 µM. Besides, the TGI with SNB-75 CNS is greater than 82.1 µM; in the assay with MDA-MB-435 it was 62.4 µM; in the assay with HT29 colon, 2.97 µM.

For `Cc1ccc(CC(=O)Nc2ccc(NC(=O)CNC(=O)/C=C/c3ccc(-c4ccccc4)cc3)cc2C(=O)c2ccccc2)cc1`, the TGI in the assay on MDA-MB-231 breast is 9.21 µM; with SK-MEL-28 melanoma, 66.6 µM; in the assay with OVCAR-3 ovarian, 19.1 µM; in the assay on KM12 colon, 14.5 µM; in the assay with OVCAR-8 ovarian, 3.27 µM; in the assay with COLO 205 colon, 32 µM. The TGI in the assay with MDA-N came to 20.9 µM; in the assay on MDA-MB-435 it was 16.1 µM; in the assay on HT29 colon, 2.99 µM.

Regarding `Cc1csc2n(C)c(=O)c3ccccc3[n+]12`, the TGI in the assay with MDA-MB-231 breast, in the assay with SK-MEL-28 melanoma, with OVCAR-3 ovarian, with KM12 colon, in the assay on OVCAR-8 ovarian and with COLO 205 colon was greater than 100 µM in each case. In addition, the TGI in the assay with MDA-N, in the assay on MDA-MB-435 and in the assay on HT29 colon was greater than 100 µM each time.

Consider `CCc1cc2c(oc3c4ccccc4ccc23)c(=O)[nH]1`, for which the TGI in the assay on OVCAR-3 ovarian, in the assay on KM12 colon, with OVCAR-8 ovarian, in the assay on MDA-N, in the assay on SNB-75 CNS and with MDA-MB-435 was greater than 10 µM throughout. For the same molecule, in the assay with HT29 colon, the TGI is greater than 10 µM.

With `O=c1c(S(=O)(=O)Oc2ccccc2)coc2cc(F)ccc12`, the TGI in the assay with MDA-MB-231 breast, in the assay on SK-MEL-28 melanoma, in the assay with OVCAR-3 ovarian, with KM12 colon, in the assay on OVCAR-8 ovarian and in the assay with MDA-N was greater than 100 µM throughout. The TGI with SNB-75 CNS, in the assay on MDA-MB-435 and with HT29 colon was greater than 100 µM throughout.

Consider `c1ccc2nn(C3CCCCO3)nc2c1` (stereo not given), for which the TGI in the assay on MDA-MB-231 breast, with OVCAR-3 ovarian, in the assay on KM12 colon, in the assay with OVCAR-8 ovarian, in the assay on COLO 205 colon and in the assay with MDA-N was greater than 100 µM throughout. Further, the TGI with SNB-75 CNS, in the assay with MDA-MB-435 and in the assay on HT29 colon was greater than 100 µM each time.
